Measurements reported in PMC9611727, “Optimization of a Novel Mandelamide-Derived Pyrrolopyrimidine Series of PERK Inhibitors” (Pharmaceutics, 2022).
Where two headings read alike, the source gives them in different places.

Experiments:
[1] = Metabolic clearance in hepatocytes, dog; assay type: in vitro ADME; conditions: male, beagle, cryopreserved dog hepatocytes, read-out: Hepatocyte Clearance (t1/2 min) Dog
Description: (§1) Metabolic Clearance in Hepatocytes
(§2) Testosterone was obtained from Cerilliant (Round Rock, TX). 7-Hydroxycoumarin was obtained from Sigma-Aldrich (St.
(§3) Louis, MO). Ten-donor male pooled cryopreserved human hepatocytes, cryopreserved male Sprague Dawley rat hepatocytes, cryopreserved male ICR/CD-1 mouse hepatocytes, cryopreserved male beagle dog hepatocytes, In VitroGro HI Medium (Incubation), and InVitroGro HT Medium (Thawing) were obtained from Bioreclamation IVT (Baltimore, MD). All solvents were obtained from commercial sources and used without further purification.Test compound was prepared as a 1 mM stock solution in DMSO. A 2 µM solution of test compound and testosterone was prepared (7 - hydroxycoumarin was prepared at 20 µM) in In VitroGro HI Medium (Incubation). These solutions were placed in a sterile incubator set to maintain 37°C, 5% CO2, and 98% humidity to pre-warm. Cryopreserved hepatocytes were prepared at a concentration of 2 x 10^6 living cells/mL in incubation media and placed in the incubator to pre-warn. The compound solutions and hepatocyte mixtures were then combined at a ratio of 1:1 (v:v). The final volume of the reaction mixture was 750 µL, containing 1 µM test compound and 1 x 10^6 cells/mL. The reaction mixture was placed in the incubator on a plate shaker. After 0, 15, 30, 60, 90, and 120 minutes of incubation, 100 µL of reaction mixtures were removed from the incubation plate and mixed with 150 µL of ice-cold acetonitrile in a designated well of a 96-well crash plate. The 96-well crash plate was placed on ice for 15 min, and samples were centrifuged (3,600 rpm, 10 min, 4 °C) to precipitate protein.
(§4) The supernatants were diluted 1:1 (v/v) with water containing tolbutamide, (internal standard for positive and negative modes, respectively) in a 96-well shallow injection plate. This plate was sealed for LC-MS analysis. All measurements

[2] = Metabolic clearance in hepatocytes, mouse; assay type: in vitro ADME; conditions: male, ICR/CD-1, cryopreserved mouse hepatocytes, read-out: Hepatocyte Clearance (t1/2 min) Mouse
Description: as §1, §2, §3, §4

[3] = Metabolic clearance in hepatocytes, rat; assay type: in vitro ADME; conditions: male, Sprague Dawley, cryopreserved rat hepatocytes, read-out: Hepatocyte Clearance (t1/2 min) Rat
Description: as §1, §2, §3, §4

PERK = target: T1, PERK (Homo sapiens, UniProt Q9NZJ5); assay: PERK biochemical LanthaScreen TR-FRET assay (GFP-eIF2a phosphorylation)
T1 sequence (Q9NZJ5 30-1116): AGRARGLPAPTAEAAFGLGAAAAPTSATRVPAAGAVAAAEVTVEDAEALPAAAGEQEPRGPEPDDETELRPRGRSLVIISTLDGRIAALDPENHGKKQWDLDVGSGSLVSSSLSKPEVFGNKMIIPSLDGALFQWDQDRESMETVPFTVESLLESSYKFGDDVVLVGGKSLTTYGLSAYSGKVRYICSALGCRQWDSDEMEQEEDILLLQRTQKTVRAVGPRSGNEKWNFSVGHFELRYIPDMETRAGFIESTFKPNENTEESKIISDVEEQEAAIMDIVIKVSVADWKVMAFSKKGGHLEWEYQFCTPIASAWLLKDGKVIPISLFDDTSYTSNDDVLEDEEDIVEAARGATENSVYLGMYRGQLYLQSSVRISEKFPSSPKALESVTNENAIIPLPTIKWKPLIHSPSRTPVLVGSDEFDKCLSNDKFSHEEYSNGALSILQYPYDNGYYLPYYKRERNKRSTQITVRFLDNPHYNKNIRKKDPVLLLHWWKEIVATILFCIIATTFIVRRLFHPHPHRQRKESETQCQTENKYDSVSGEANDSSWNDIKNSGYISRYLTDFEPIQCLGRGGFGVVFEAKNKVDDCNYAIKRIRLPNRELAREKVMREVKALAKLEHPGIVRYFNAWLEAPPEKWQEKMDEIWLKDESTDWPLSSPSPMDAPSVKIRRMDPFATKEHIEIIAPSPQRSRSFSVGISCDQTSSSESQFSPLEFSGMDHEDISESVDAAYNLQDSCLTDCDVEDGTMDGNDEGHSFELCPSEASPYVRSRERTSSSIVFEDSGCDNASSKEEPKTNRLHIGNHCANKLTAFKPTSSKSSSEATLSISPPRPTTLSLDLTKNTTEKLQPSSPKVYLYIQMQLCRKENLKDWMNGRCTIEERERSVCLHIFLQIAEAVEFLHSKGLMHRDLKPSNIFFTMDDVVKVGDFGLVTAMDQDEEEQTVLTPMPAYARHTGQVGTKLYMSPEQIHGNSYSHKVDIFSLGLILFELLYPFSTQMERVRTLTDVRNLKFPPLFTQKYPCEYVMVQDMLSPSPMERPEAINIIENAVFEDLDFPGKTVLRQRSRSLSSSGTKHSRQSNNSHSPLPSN
Description: Methods used to evaluate biochemical PERK activity are described and published elsewhere. In brief, biochemical PERK activity is evaluated using a LanthaScreenTM ([…]) TR-FRET assay to detect phosphorylation of a GFP-tagged eIF2a substrate (ThermoFisher). Excitation at […] of a terbium chelate donor fluorophore in an eIF2a antibody results in energy transfer to GFP acceptor fluorophore upon eIF2a phosphorylation by PERK. Reaction buffer was composed of 50 mM HEPES (pH 7.4), 10 mM MgCl2, 1 mM EGTA and 0.01% (v/v) BrijTM-35. Reactions were initiated by the addition of substrate and ATP, followed by incubation for 1 h at RT prior to addition of EDTA and the anti-peIF2a antibody. FRET was measured by an EnVision Plate Reader (PerkinElmer). Data were plotted as percent inhibition along a 10-point 3-fold dilution series of inhibitors. IC50 values were calculated using 4-parameter logistical fitting in XLFit.
The PERK activity of analog I was evaluated using cell-free biochemical assays. In these assays, PERK phosphorylation of eIF2a was assessed using a FRET-based labelled protein assay. Compounds were then evaluated for cellular activity by quantifying inhibition of eIF2a phosphorylation in HEK293 cells treated with the ER inducer tunicamycin [7].

[4] = cell-free TR-FRET, GFP-eIF2a substrate, read-out: PERK IC50

Compound	half-life at 1 µM [1]	half-life at 1 µM [2]	half-life at 1 µM [3]	IC50 (PERK; [4])	IC50 (PERK; bound stated, read-out: biochemical potency)
Cc1nc(N)c2c(-c3ccc(NC(=O)[C@H](O)c4cc(F)cc(C(F)(F)F)c4)cc3C)cn(C)c2n1 [Compound 39]	3.72 h	5.33 h	4.2 h	2.6 nM	
Cc1cc(NC(=O)[C@H](O)c2cccc(F)c2)ccc1-c1cn(C)c2ncnc(N)c12 [Compound 11, (R)-N-(4-(4-amino-7-methyl-7H-pyrrolo[2,3-d]pyrimidin-5-yl)-3-methylphenyl)-2-(3-fluorophenyl)-2-hydroxy acetamide]				2.2 nM	
Cc1nc(N)c2c(-c3cc(F)c(NC(=O)[C@H](O)c4cccc(F)c4)cc3C)cn(C)c2n1 [Compound 66]	0.65 h	2.78 h	0.217 h	11 nM	
Cc1nc(N)c2c(-c3ccc(NC(=O)[C@H](O)c4cccc(F)c4)c(F)c3F)cn(C)c2n1 [Compound 70, (R)-N-(4-(4-amino-2,7-dimethyl-7H-pyrrolo[2,3-d]pyrimidin-5-yl)-2,3-difluorophenyl)-2-(3-fluorophenyl)-2-hydroxyacetamide]	4.47 h	0.75 h	0.25 h	1.5 nM	
Cc1nc(N)c2c(-c3ccc(NC(=O)[C@H](O)c4cccc(C(F)(F)F)c4)cc3C)cn(C)c2n1 [Compound 26]	2.17 h	1.97 h	2.77 h	2.8 nM	
Cc1nc(N)c2c(-c3ccc(NC(=O)[C@H](O)c4cccc(F)c4)cc3C)cn(C)c2n1 [Compound 24]	> 16.7 h	0.517 h	0.383 h	20 nM	

Next, values leading:

half-life at 1 µM [1]	half-life at 1 µM [2]	half-life at 1 µM [3]	IC50 (PERK; [4])	IC50 (PERK; bound stated, read-out: biochemical potency)	Compound
7.67 h	13.4 h	2.02 h	1.9 nM		Cc1nc(N)c2c(-c3ccc(NC(=O)[C@H](O)c4cc(F)cc(F)c4)cc3C)cn(C)c2n1 [Compound 38]
5.92 h	1.03 h	0.45 h	1.8 nM		Cc1nc(N)c2c(-c3ccc(NC(=O)[C@H](O)c4cccc(Cl)c4)cc3C)cn(C)c2n1 [Compound 28]
9.45 h	1.07 h	0.367 h	1.9 nM		Cc1nc(N)c2c(-c3ccc(NC(=O)[C@H](O)c4cccc(F)c4)c(F)c3C)cn(C)c2n1 [Compound 65]
3.87 h	0.4 h	0.267 h	1.4 nM		Cc1cc(F)cc([C@@H](O)C(=O)Nc2ccc(-c3cn(C)c4nc(C)nc(N)c34)c(C)c2)c1 [Compound 41]
3.58 h	0.883 h	0.417 h	1 nM	< 5 nM	Cc1nc(N)c2c(-c3ccc(NC(=O)[C@H](O)c4cccc(Cl)c4)cc3F)cn(C)c2n1 [Compound 48]
